Some test systems named below: TK-10; UO-31; SW-620; SK-OV-3; MOLT-4; CCRF-CEM; SF-295; SK-MEL-28; HCT-15; HL-60; U-251; M14; SN12C; SF-268; UACC-62; 786-0; IGROV-1; SNB-19; CAKI-1; OVCAR-4.
Test in all cases: DTP human tumour cell line panel, 48 h

Molecules are shown by their SMILES.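 Each compound was tested at five concentrations against cells in 96-well plates for 48 hours. GI50 is the concentration that inhibits growth by half.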 Calls of active or inactive are those of the source. Cut-off read from the data, not from the text of the source: active = GI50 up to about 1.1 µM and inactive = higher. Starred links: 1 amine or outer side, 2 acyl side, 3 side chain; linkers in the order of their positions; H or OH if unused. Non-standard residues stand in square brackets, D forms with d. Residues, ends and D or L forms follow the SMILES beside them. X4 = C[C@H](N[*:1])C(=O)C(C)(C)C(=O)[*:2]; Hmpa(2S,3S) = CC[C@H](C)[C@H](O)C(=O)O; NMeY = CN[C@@H](Cc1ccc(O)cc1)C(=O)O; NMeL = CN[C@@H](CC(C)C)C(=O)O; NMeV = CN[C@H](C(=O)O)C(C)C; βAla = NCCC(=O)O A value given as a limit tells only on which side of the number the result lay.

By GI50 is commonly meant the concentration at which growth is held to half of that of the control. As to `O=C1C=C/C(=N\c2ccc3c(c2)C(Br)c2ccccc2-3)O1` (centres undefined), the GI50 with TK-10 was > 100 µM (inactive); with UO-31 it was > 100 µM (inactive); in the assay on SW-620 it was 27.6 µM (inactive); in the assay on SK-OV-3, > 100 µM (inactive); with MOLT-4, 26.8 µM (inactive); in the assay with CCRF-CEM it was 26.8 µM (inactive). For the same molecule, the GI50 in the assay with SF-295 is > 100 µM (inactive); in the assay with SK-MEL-28, > 100 µM (inactive); in the assay with HCT-15, greater than 100 µM; with HL-60 it was 10.2 µM (inactive); in the assay on U-251, > 100 µM (inactive); with M14, > 100 µM (inactive). Also, the GI50 with SN12C is 21.5 µM (inactive); in the assay with SF-268, > 100 µM (inactive); in the assay with UACC-62 it was 61.5 µM (inactive); in the assay on 786-0, 29 µM (inactive); in the assay on IGROV-1 it was > 100 µM (inactive); in the assay on SNB-19 it was > 100 µM (inactive).
`Cc1cccc(N2CCN(S(=O)(=O)c3ccc(Cl)cc3)C2=N)c1C`: the GI50 in the assay on TK-10 was > 100 µM (inactive); in the assay with UO-31, 47.9 µM (inactive); in the assay with SW-620 it was > 100 µM (inactive); in the assay on SK-OV-3 it was > 100 µM (inactive); with MOLT-4, 35 µM (inactive); in the assay on SF-295, 77.4 µM (inactive). Also, the GI50 is 38.6 µM (inactive) with SK-MEL-28; > 100 µM (inactive) with U-251; > 100 µM (inactive) in the assay with M14; > 100 µM (inactive) in the assay with CAKI-1; > 100 µM (inactive) with SN12C; > 100 µM (inactive) in the assay on SF-268. Also, the GI50 was 38.4 µM (inactive) in the assay with UACC-62, > 100 µM (inactive) in the assay with 786-0, 25.1 µM (inactive) in the assay on IGROV-1 and > 100 µM (inactive) in the assay with SNB-19.
Consider `CC(=O)/C(=C\NC(N)=S)C(=O)Nc1ccccc1C`, for which the GI50 in the assay with TK-10, in the assay on UO-31, in the assay with SW-620, in the assay on SK-OV-3, in the assay on MOLT-4 and in the assay on CCRF-CEM was > 100 µM (inactive) in each case. The GI50 in the assay on SF-295 is > 100 µM (inactive); in the assay with SK-MEL-28, > 100 µM (inactive); in the assay on HCT-15, greater than 100 µM; in the assay on U-251 it was > 100 µM (inactive); with OVCAR-4, > 100 µM (inactive); with M14, > 100 µM (inactive). Moreover, the GI50 in the assay with CAKI-1, in the assay on SN12C, in the assay with SF-268, with UACC-62, in the assay on 786-0 and in the assay with IGROV-1 was > 100 µM (inactive) each time. Moreover, the GI50 in the assay on SNB-19 was > 100 µM (inactive).
Regarding `CN(C)c1ccc(/C=C/c2nc3ccccc3s2)cc1`, the GI50 was > 100 µM (inactive) in the assay on TK-10; 8.53 µM (inactive) in the assay with UO-31; > 100 µM (inactive) in the assay with SW-620; > 100 µM (inactive) with SK-OV-3; > 100 µM (inactive) in the assay on MOLT-4; > 100 µM (inactive) in the assay on CCRF-CEM. Moreover, the GI50 in the assay with SF-295 is > 100 µM (inactive); in the assay with SK-MEL-28 it was > 100 µM (inactive); in the assay with HCT-15, greater than 100 µM; with HL-60, 6.08 µM (inactive); in the assay with U-251 it was > 100 µM (inactive); with OVCAR-4, > 100 µM (inactive). Moreover, the GI50 in the assay on M14, in the assay with SN12C, with SF-268, in the assay on 786-0, in the assay on IGROV-1 and with SNB-19 was > 100 µM (inactive) throughout.
Consider `Cc1nc2ccccc2c(=O)n1NC(=O)c1ccc([N+](=O)[O-])cc1`, for which the GI50 in the assay with TK-10, in the assay with UO-31, with SW-620, in the assay with SK-OV-3, with MOLT-4 and in the assay with CCRF-CEM was > 100 µM (inactive) in each case. In addition, the GI50 in the assay with SF-295, in the assay with SK-MEL-28, in the assay on HL-60, in the assay on U-251, in the assay on OVCAR-4 and with M14 was > 100 µM (inactive) throughout. In addition, the GI50 in the assay on SN12C, in the assay with SF-268, in the assay with UACC-62, with 786-0, in the assay with IGROV-1 and in the assay with SNB-19 was > 100 µM (inactive) in each case.
Consider `CCOC(=O)/C=C(/C(=O)OCC)n1cc(C)c(=O)n(Cc2cnnn2CCCCOC(C)=O)c1=O`, for which the GI50 in the assay on TK-10 is 12.6 µM (inactive); with UO-31, 18.4 µM (inactive); with SW-620, 5.55 µM (inactive); in the assay with SK-OV-3, > 100 µM (inactive); in the assay with MOLT-4 it was 18.2 µM (inactive); in the assay with CCRF-CEM it was 1.13 µM (inactive). For the same molecule, the GI50 in the assay with SF-295 is > 100 µM (inactive); with SK-MEL-28 it was 25.2 µM (inactive); with HCT-15, 12.6 µM; with U-251, 32.4 µM (inactive); in the assay on OVCAR-4, 48.5 µM (inactive); in the assay with CAKI-1, 5.79 µM (inactive). Besides, the GI50 is 45.2 µM (inactive) in the assay on SN12C; 36.6 µM (inactive) in the assay on SF-268; 19 µM (inactive) in the assay with UACC-62; 15.6 µM (inactive) in the assay with 786-0; 19 µM (inactive) in the assay with IGROV-1; > 100 µM (inactive) with SNB-19.
In the case of `CC(C)(C)C(=O)Nc1c(C=O)ccc2[nH]cnc12`, the GI50 was > 100 µM (inactive) in the assay on TK-10; > 100 µM (inactive) in the assay with UO-31; > 100 µM (inactive) with SW-620; > 100 µM (inactive) with SK-OV-3; 30.5 µM (inactive) with MOLT-4; 33.3 µM (inactive) in the assay with CCRF-CEM. For the same molecule, the GI50 in the assay with SF-295 was > 100 µM (inactive); in the assay with SK-MEL-28, > 100 µM (inactive); with HCT-15, greater than 100 µM; with U-251, 82.4 µM (inactive); in the assay on OVCAR-4, > 100 µM (inactive); in the assay on M14 it was > 100 µM (inactive). Moreover, the GI50 in the assay with CAKI-1 was 75.7 µM (inactive); with SN12C, > 100 µM (inactive); with SF-268 it was > 100 µM (inactive); in the assay on 786-0, > 100 µM (inactive); with IGROV-1, > 100 µM (inactive); in the assay on SNB-19, > 100 µM (inactive).
Take `COC(=O)c1csc(-c2nc(CCNC(=O)OC(C)(C)C)sc2Br)n1`: the GI50 with TK-10, in the assay on UO-31, in the assay on SW-620, in the assay with SK-OV-3, in the assay with MOLT-4 and in the assay on CCRF-CEM was > 100 µM (inactive) throughout. Moreover, the GI50 with SF-295 is > 100 µM (inactive); in the assay on SK-MEL-28 it was > 100 µM (inactive); with HCT-15 it was greater than 100 µM; with HL-60, > 100 µM (inactive); with U-251 it was > 100 µM (inactive); in the assay on M14, > 100 µM (inactive). Moreover, the GI50 in the assay with SN12C, with SF-268, in the assay on UACC-62, in the assay on 786-0, in the assay on IGROV-1 and in the assay on SNB-19 was > 100 µM (inactive) in each case.
`CC[C@H](C)[C@@H]1OC(=O)CCNC(=O)[C@@H](C)NC(=O)C(C)(C)C(=O)[C@H](C)NC(=O)[C@H](Cc2ccc(OC)cc2)N(C)C(=O)[C@H](C(C)C)N(C)C(=O)CNC(=O)[C@H](CC(C)C)N(C)C(=O)CNC1=O` (cyclo(G[NMeL]G[NMeV][NMeY](Me)[X4][dA][βAla][Hmpa(2S,3S)])): the GI50 with TK-10 is 1.67 µM (inactive); with UO-31, 7.76 µM (inactive); in the assay on SW-620, 0.0625 µM (active); with SK-OV-3, 0.294 µM (active); with MOLT-4, 2.4 µM (inactive); in the assay with CCRF-CEM it was 0.0568 µM (active). For the same molecule, the GI50 is 0.306 µM (active) with SF-295; 0.15 µM (active) with SK-MEL-28; 1.63 µM in the assay on HCT-15; 0.0855 µM (active) in the assay with U-251; 0.284 µM (active) with OVCAR-4; 0.885 µM (active) in the assay with M14. The GI50 in the assay on CAKI-1 was 1.53 µM (inactive); with SN12C it was 0.367 µM (active); with SF-268, 0.254 µM (active); with UACC-62, 0.294 µM (active); in the assay with 786-0, 0.676 µM (active); in the assay on IGROV-1 it was 0.697 µM (active). The GI50 with SNB-19 was 0.111 µM (active).
As for `NC(=O)C(=O)C(c1ccccc1)S(=O)(=O)Cc1ccccc1` (centres undefined), the GI50 with TK-10 is > 100 µM (inactive); in the assay on UO-31 it was > 100 µM (inactive); with SW-620 it was > 100 µM (inactive); in the assay on SK-OV-3, > 100 µM (inactive); in the assay with MOLT-4, 16.5 µM (inactive); in the assay on CCRF-CEM it was > 100 µM (inactive). Also, the GI50 in the assay on SF-295 is > 100 µM (inactive); in the assay with SK-MEL-28, > 100 µM (inactive); in the assay on HCT-15, greater than 100 µM; in the assay with U-251, > 100 µM (inactive); in the assay on OVCAR-4, > 100 µM (inactive); in the assay with M14, > 100 µM (inactive). In addition, the GI50 in the assay with CAKI-1, in the assay with SN12C, in the assay with SF-268, in the assay with UACC-62, in the assay on 786-0 and with IGROV-1 was > 100 µM (inactive) throughout. Besides, the GI50 in the assay with SNB-19 was > 100 µM (inactive).
Consider `O=C(N/C(=C\c1c(O)ccc2ccccc12)c1nc2ccccc2[nH]1)c1ccccc1`, for which the GI50 in the assay on TK-10 is > 100 µM (inactive); in the assay with UO-31, 42.6 µM (inactive); in the assay on SW-620, > 100 µM (inactive); in the assay with SK-OV-3, 86.3 µM (inactive); in the assay with MOLT-4 it was > 100 µM (inactive); in the assay on CCRF-CEM, > 100 µM (inactive). Besides, the GI50 is > 100 µM (inactive) in the assay with SK-MEL-28; greater than 100 µM with HCT-15; 79.3 µM (inactive) in the assay on U-251; > 100 µM (inactive) in the assay on OVCAR-4; > 100 µM (inactive) in the assay on M14; > 100 µM (inactive) in the assay on CAKI-1. For the same molecule, the GI50 in the assay with SN12C is 92.7 µM (inactive); with SF-268 it was 64.3 µM (inactive); with UACC-62 it was > 100 µM (inactive); in the assay on 786-0, 39.8 µM (inactive); in the assay on IGROV-1, > 100 µM (inactive); in the assay with SNB-19, 53.8 µM (inactive).

The values are drawn from ChEMBL document CHEMBL1201862, “PubChem BioAssay data set” (2004).
